What was measured:
Assay type in all cases: in vitro ADME
AOX = target: T1, AOX (Homo sapiens, UniProt Q06278); experiment: Metabolite formation by recombinant human AOX; settings: trazodone 4 μM; 37 °C, 40 min
T1 sequence (Q06278 1-1338): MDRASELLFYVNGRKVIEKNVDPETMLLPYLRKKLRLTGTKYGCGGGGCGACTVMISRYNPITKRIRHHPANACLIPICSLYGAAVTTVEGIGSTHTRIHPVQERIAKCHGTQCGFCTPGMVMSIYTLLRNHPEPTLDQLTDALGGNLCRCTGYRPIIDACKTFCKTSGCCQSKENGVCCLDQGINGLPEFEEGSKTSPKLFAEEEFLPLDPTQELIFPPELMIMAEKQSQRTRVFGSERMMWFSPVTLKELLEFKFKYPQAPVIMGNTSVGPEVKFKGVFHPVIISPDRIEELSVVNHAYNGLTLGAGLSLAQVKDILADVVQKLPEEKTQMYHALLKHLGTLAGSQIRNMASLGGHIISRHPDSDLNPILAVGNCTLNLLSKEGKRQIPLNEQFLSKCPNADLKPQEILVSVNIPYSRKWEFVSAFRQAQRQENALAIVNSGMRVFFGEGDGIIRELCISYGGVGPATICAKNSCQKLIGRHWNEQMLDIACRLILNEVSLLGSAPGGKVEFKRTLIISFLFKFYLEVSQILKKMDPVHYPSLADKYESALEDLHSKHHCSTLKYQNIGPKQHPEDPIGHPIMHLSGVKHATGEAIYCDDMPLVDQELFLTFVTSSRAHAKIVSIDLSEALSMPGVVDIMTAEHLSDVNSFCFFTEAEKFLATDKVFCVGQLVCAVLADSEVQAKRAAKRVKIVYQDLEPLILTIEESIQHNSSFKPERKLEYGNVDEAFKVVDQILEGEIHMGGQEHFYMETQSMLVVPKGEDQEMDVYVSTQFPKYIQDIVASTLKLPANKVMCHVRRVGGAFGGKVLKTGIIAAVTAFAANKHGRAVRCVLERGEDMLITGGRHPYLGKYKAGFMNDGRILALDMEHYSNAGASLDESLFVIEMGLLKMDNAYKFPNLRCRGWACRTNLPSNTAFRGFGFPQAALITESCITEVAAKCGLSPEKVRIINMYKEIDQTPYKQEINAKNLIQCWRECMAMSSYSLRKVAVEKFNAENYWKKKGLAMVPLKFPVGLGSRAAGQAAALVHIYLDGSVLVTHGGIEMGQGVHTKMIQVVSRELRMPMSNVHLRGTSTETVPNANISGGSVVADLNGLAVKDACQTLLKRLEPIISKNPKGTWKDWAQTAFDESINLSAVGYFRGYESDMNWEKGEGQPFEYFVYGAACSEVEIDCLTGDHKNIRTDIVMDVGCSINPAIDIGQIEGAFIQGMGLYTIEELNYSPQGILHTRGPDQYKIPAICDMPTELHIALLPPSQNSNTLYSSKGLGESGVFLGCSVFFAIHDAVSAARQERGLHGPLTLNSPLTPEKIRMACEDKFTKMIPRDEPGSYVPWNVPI

FMO3 = target: T2, FMO3 (Homo sapiens, UniProt P31513); experiment: Metabolite formation by recombinant human FMO3; settings: trazodone 4 μM; 37 °C, 40 min
T2 sequence (P31513 1-532): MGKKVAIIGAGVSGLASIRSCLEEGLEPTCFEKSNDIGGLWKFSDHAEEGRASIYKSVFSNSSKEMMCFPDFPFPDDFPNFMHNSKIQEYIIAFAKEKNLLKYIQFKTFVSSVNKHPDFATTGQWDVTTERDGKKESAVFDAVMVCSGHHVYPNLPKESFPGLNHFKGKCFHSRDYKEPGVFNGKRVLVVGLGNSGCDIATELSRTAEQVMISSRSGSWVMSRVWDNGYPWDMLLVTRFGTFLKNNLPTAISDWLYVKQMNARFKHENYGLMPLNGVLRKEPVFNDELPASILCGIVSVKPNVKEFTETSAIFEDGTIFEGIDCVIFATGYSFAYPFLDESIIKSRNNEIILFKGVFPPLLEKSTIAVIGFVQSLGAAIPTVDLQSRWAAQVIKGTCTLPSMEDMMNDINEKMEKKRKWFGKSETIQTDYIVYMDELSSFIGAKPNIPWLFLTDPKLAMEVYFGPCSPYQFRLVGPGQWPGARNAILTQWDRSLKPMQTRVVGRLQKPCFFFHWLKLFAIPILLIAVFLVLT

CYP2B6 = target: T3, CYP2B6 (Homo sapiens, UniProt P20813); experiment: Metabolite formation by recombinant human CYP2B6; settings: trazodone 4 μM; NADPH; 37 °C, 40 min
T3 sequence (P20813 1-491): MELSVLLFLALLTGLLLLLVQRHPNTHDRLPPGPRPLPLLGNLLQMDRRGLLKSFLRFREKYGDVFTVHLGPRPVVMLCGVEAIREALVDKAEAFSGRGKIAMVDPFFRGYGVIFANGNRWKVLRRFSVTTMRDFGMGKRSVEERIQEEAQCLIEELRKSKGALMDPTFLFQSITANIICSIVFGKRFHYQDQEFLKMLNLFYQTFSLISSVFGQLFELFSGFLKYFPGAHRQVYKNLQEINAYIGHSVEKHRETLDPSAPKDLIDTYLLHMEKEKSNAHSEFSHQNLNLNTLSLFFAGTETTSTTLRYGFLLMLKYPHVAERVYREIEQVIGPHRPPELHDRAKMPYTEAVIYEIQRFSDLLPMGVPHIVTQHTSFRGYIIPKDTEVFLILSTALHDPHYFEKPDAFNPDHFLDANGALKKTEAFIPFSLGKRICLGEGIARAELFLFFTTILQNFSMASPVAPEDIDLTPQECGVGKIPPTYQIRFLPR
Method: (§1) To confirm the role of individual CYP isoforms in metabolizing trazodone, recombinant human and rat CYP enzymes were employed in separate incubations. […] Each reaction was terminated with acetonitrile, centrifuged, and the supernatant was analyzed by identical UHPLC-Orbitrap setup outlined in §2.2, allowing direct comparison of metabolite spectra across all in-vitro systems. […] This procedure helped confirm the contributions of individual isoforms to specific biotransformation reactions.

CYP2E1 = CYP2E1 (Homo sapiens, UniProt P05181); experiment: Metabolite formation by recombinant human CYP2E1; settings: trazodone 4 μM; NADPH; 37 °C, 40 min
Method: as §1

CYP2E1, sequence (P05181 whole entry): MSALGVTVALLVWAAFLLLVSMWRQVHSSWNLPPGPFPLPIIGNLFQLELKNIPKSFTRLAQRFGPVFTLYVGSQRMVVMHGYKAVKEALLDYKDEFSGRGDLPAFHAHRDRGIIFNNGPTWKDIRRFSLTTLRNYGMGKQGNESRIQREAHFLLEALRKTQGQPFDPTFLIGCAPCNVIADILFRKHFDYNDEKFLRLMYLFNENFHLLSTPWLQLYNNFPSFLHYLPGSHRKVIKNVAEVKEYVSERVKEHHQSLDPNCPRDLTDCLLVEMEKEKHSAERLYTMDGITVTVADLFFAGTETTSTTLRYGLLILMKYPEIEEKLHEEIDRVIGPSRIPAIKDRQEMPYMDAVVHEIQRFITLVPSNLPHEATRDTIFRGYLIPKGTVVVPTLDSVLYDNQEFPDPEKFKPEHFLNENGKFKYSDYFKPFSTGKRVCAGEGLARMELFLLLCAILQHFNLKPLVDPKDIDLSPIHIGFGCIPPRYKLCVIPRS

SMILES: Clc1cccc(N2CCNCC2)c1 [mCPP, m-chlorophenylpiperazine]
- Formation of trazodone phase I metabolite by recombinant human AOX (as LC/MS peak areas) (AOX): 106
- Formation of trazodone phase I metabolite by recombinant human FMO3 (as LC/MS peak areas) (FMO3): 4
- Formation of trazodone phase I metabolite by recombinant human CYP2B6 (as LC/MS peak areas) (CYP2B6): 112
- Formation of trazodone phase I metabolite by recombinant human CYP2E1 (as LC/MS peak areas) (CYP2E1): 16

SMILES: O=c1n(CCCN2CCNCC2)nc2ccccn12 [Metabolite M15]
- Formation of trazodone phase I metabolite by recombinant human AOX (as LC/MS peak areas) (AOX): 0
- Formation of trazodone phase I metabolite by recombinant human FMO3 (as LC/MS peak areas) (FMO3): 0
- Formation of trazodone phase I metabolite by recombinant human CYP2B6 (as LC/MS peak areas) (CYP2B6): 0
- Formation of trazodone phase I metabolite by recombinant human CYP2E1 (as LC/MS peak areas) (CYP2E1): 0

SMILES: O=c1n(CCCO)nc2ccccn12 [Metabolite M20]
- Formation of trazodone phase I metabolite by recombinant human AOX (as LC/MS peak areas) (AOX): 0
- Formation of trazodone phase I metabolite by recombinant human FMO3 (as LC/MS peak areas) (FMO3): 0
- Formation of trazodone phase I metabolite by recombinant human CYP2B6 (as LC/MS peak areas) (CYP2B6): 0
- Formation of trazodone phase I metabolite by recombinant human CYP2E1 (as LC/MS peak areas) (CYP2E1): 0

Reference: article PMC12518996 (Frontiers in Pharmacology, 2025)
